In DBAASP:
Converted amounts (≈) assume the structure as drawn. Each block holds one compound with its values, some of them ahead of it.

What was measured:
Assay in all cases: ≥ marks a high value that may be exact or a test limit, other limits are often not marked, values filed in µg/mL are converted to µM
[1] = tested on: Staphylococcus aureus BCRC 10780
Vibrio alginolyticus = tested on: Vibrio alginolyticus
[2] = tested on: Vibrio harveyi BCRC 13812
[3] = tested on: Staphylococcus sp. BCRC 10451
[4] = tested on: Streptococcus pneumoniae BCRC 10794
[5] = tested on: Klebsiella pneumoniae ATCC 700603
[6] = tested on: Escherichia coli ATCC 25922
[7] = tested on: Staphylococcus aureus ATCC 700699
[8] = tested on: Staphylococcus aureus ATCC 33591
[9] = tested on: Staphylococcus aureus ATCC 29213
[10] = tested on: Pseudomonas aeruginosa ATCC 27853
Escherichia coli K91BK = tested on: Escherichia coli K91BK
[11] = tested on: Bacillus subtilis var. niger ATCC 9372
[12] = tested on: Bacillus anthracis Sterne 34F2
[13] = tested on: Bacillus subtilis ATCC 9372
[14] = tested on: Burkholderia thailandensis
[15] = tested on: Proteus mirabilis CICC 22931
[16] = tested on: Pseudomonas aeruginosa CGMCC 1.860
[17] = tested on: Staphylococcus aureus AS1.72
Escherichia coli AS1.349 = tested on: Escherichia coli AS1.349
[18] = tested on: Staphylococcus epidermidis CICC 23664
[19] = tested on: Enterococcus faecalis CGMCC 1.595
Bacillus cereus AS1.126 = tested on: Bacillus cereus AS1.126
[20] = tested on: Klebsiella pneumoniae subsp. pneumoniae CGMCC 1.176
[21] = tested on: Enterococcus faecium CGMCC 1.2334
[22] = tested on: Enterobacter cloacae CGMCC 1.58
[23] = tested on: Lactococcus lactis AS1.1690
[24] = tested on: Klebsiella aerogenes CGMCC 1.876
[25] = tested on: Acinetobacter baumannii CICC 22934
[26] = tested on: Listeria monocytogenes LO28
[27] = tested on: Cronobacter sakazakii DPC 6440

Structure (SMILES): CC(=O)NCC(=O)N[C@@H](Cc1c[nH]c2ccccc12)C(=O)NCC(=O)N[C@@H](CO)C(=O)N[C@@H](Cc1ccccc1)C(=O)N[C@@H](Cc1ccccc1)C(=O)N[C@@H](CCCCN)C(=O)N[C@@H](CCCCN)C(=O)N[C@@H](C)C(=O)N[C@@H](C)C(=O)N[C@@H](Cc1cnc[nH]1)C(=O)N[C@H](C(=O)NCC(=O)N[C@@H](CCCCN)C(=O)N[C@@H](Cc1cnc[nH]1)C(=O)N[C@H](C(=O)NCC(=O)N[C@@H](CCCCN)C(=O)N[C@@H](C)C(=O)N[C@@H](C)C(=O)N[C@@H](CC(C)C)C(=O)N[C@H](C(=O)N[C@@H](Cc1cnc[nH]1)C(=O)N[C@@H](Cc1ccc(O)cc1)C(=O)N[C@@H](CC(C)C)C(N)=O)[C@@H](C)O)C(C)C)C(C)C [GWGSFFKKAAHVGKHVGKAALTHYL]
- MIC (Escherichia coli K91BK): ≥ 100 µM
- MIC [11]: 17.7 µM (≈ 48.7 µg/mL)
- MIC [12]: ≥ 79.4 µM

Structure (SMILES): CC[C@H](C)[C@H](NC(=O)[C@H](CCCN=C(N)N)NC(=O)[C@H](CC(C)C)NC(=O)[C@H](CCC(N)=O)NC(=O)[C@H](CCCCN)NC(=O)[C@H](CC(C)C)NC(=O)[C@H](CC(C)C)NC(=O)[C@H](CC(C)C)NC(=O)[C@@H](NC(=O)[C@H](CCCCN)NC(=O)[C@H](CC(=O)O)NC(=O)[C@H](C)NC(=O)[C@@H](NC(=O)[C@H](CCCCN)NC(=O)[C@H](CCCCN)NC(=O)[C@H](CC(=O)O)NC(=O)[C@@H](NC(=O)[C@H](Cc1cnc[nH]1)NC(C)=O)C(C)C)C(C)C)C(C)C)C(=O)N[C@@H](CCSC)C(=O)N[C@@H](CCCN=C(N)N)C(=O)N[C@@H](CC(C)C)C(=O)N[C@@H](CC(C)C)C(=O)N[C@H](C(=O)N[C@@H](CCCN=C(N)N)C(=O)N[C@@H](CC(C)C)C(N)=O)[C@@H](C)O [HVDKKVADKVLLLKQLRIMRLLTRL]
- MIC [13]: 16 µM (≈ 48.7 µg/mL)
- MIC [14]: ≥ 50 µM
- MIC [12]: ≥ 35 µM

Structure (SMILES): CC[C@H](C)[C@H](N)C(=O)N[C@@H](CCCCN)C(=O)N[C@@H](CCCCN)C(=O)N[C@H](C(=O)N[C@@H](Cc1c[nH]c2ccccc12)C(=O)N[C@@H](CO)C(=O)N[C@@H](CCCCN)C(=O)N[C@H](C(=O)N[C@@H](CCCCN)C(=O)N[C@@H](CCCCN)C(=O)N[C@@H](Cc1c[nH]c2ccccc12)C(=O)N[C@@H](CC(C)C)C(=O)N[C@@H](CCCCN)C(=O)O)[C@@H](C)CC)[C@@H](C)CC [IKKIWSKIKKWLK]
- MIC [15]: ≥ 100 µM
- MIC [16]: 15.6 µM (≈ 26.5 µg/mL)
- MIC [17]: 2.5 µM (≈ 4.25 µg/mL)
- MIC (Escherichia coli AS1.349): 2.5 µM (≈ 4.25 µg/mL)
- MIC [18]: 2.5 µM (≈ 4.25 µg/mL)
- MIC [19]: 2.5 µM (≈ 4.25 µg/mL)
- MIC (Bacillus cereus AS1.126): 18.8 µM (≈ 31.9 µg/mL)
- MIC [20]: ≥ 100 µM
- MIC [21]: 5 µM (≈ 8.5 µg/mL)
- MIC [22]: ≥ 100 µM

Structure (SMILES): CC[C@H](C)[C@H](NC(=O)CNC(=O)[C@H](CCCCN)NC(=O)[C@H](CCCN=C(N)N)NC(=O)[C@@H](NC(=O)[C@@H](NC(=O)[C@H](CCCN=C(N)N)NC(=O)[C@H](CCCN=C(N)N)NC(=O)[C@H](CC(C)C)NC(=O)[C@H](CC(N)=O)NC(=O)[C@H](CCCCN)NC(C)=O)[C@@H](C)CC)[C@@H](C)CC)C(=O)N[C@@H](Cc1cnc[nH]1)C(=O)N[C@H](C(=O)N[C@H](C(=O)N[C@@H](CCCCN)C(=O)N[C@@H](CCCCN)C(=O)N[C@@H](Cc1ccc(O)cc1)C(=O)NCC(N)=O)[C@@H](C)CC)[C@@H](C)CC [KNLRRIIRKGIHIIKKYG]
- MIC (Escherichia coli K91BK): ≥ 100 µM
- MIC [14]: ≥ 100 µM
- MIC [11]: 12.5 µM (≈ 28.1 µg/mL)
- MIC [12]: ≥ 100 µM

Structure (SMILES): CC[C@H](C)[C@H](NC(=O)[C@@H](N)Cc1c[nH]c2ccccc12)C(=O)N[C@@H](CCC(N)=O)C(=O)N1CCC[C@H]1C(=O)N[C@@H](CCCCN)C(=O)N[C@H](C(=O)N[C@@H](CCCCN)C(=O)N[C@H](C(=O)N[C@H](C(=O)N1CCC[C@H]1C(=O)N[C@@H](Cc1ccc(O)cc1)C(=O)N[C@H](C(=O)O)C(C)C)[C@@H](C)CC)C(C)C)[C@@H](C)O [WIQPKTKVIPYV]
- MIC [26]: ≥ 156 µM
- MIC [27]: ≥ 625 µM

Further lines, results first:

- MIC [1]: 5.06 µM (≈ 6.46 µg/mL)
- MIC (Vibrio alginolyticus): 5.06 µM (≈ 6.46 µg/mL)
- MIC [2]: 5.06 µM (≈ 6.46 µg/mL)
- MIC [3]: 5.06 µM (≈ 6.46 µg/mL)
Structure (SMILES): CC[C@H](C)[C@H](NC(=O)[C@H](Cc1ccccc1)NC(C)=O)C(=O)N[C@@H](Cc1ccccc1)C(=O)N[C@@H](Cc1cnc[nH]1)C(=O)N[C@H](C(=O)N[C@H](C(=O)N[C@@H](CCCCN)C(=O)NCC(=O)N[C@@H](CC(C)C)C(=O)N[C@@H](Cc1ccccc1)C(N)=O)[C@@H](C)CC)[C@@H](C)CC [FIFHIIKGLF]

- MIC [4]: ≥ 161 µM
- MIC [1]: ≥ 161 µM
Structure (SMILES): CC[C@H](C)[C@H](NC(=O)[C@H](Cc1ccccc1)NC(=O)CNC(C)=O)C(=O)N[C@@H](Cc1ccccc1)C(=O)N[C@@H](Cc1cnc[nH]1)C(N)=O [GFIFH]

- MIC [5]: > 100 µM
- MIC [6]: > 100 µM
- MIC [7]: ≥ 100 µM
- MIC [8]: ≥ 100 µM
- MIC [9]: > 100 µM
- MIC [10]: > 100 µM
Structure (SMILES): CC[C@H](C)[C@H](NC(=O)[C@H](CC(=O)O)NC(=O)[C@H](CCCCN)NC(=O)[C@H](C)NC(=O)[C@H](C)NC(=O)CNC(=O)[C@H](CCCCN)NC(=O)[C@H](C)NC(=O)[C@@H](NC(=O)[C@H](CC(=O)O)NC(=O)[C@@H](NC(=O)[C@@H](NC(=O)CN)C(C)C)C(C)C)[C@@H](C)CC)C(=O)N[C@@H](C)C(=O)NCC(=O)N[C@@H](Cc1cnc[nH]1)C(=O)N[C@@H](CC(C)C)C(=O)N[C@@H](C)C(=O)N[C@@H](CO)C(=O)N[C@@H](CCCCN)C(=O)N[C@H](C(=O)N[C@@H](CCSC)C(=O)N[C@@H](CC(N)=O)C(=O)N[C@@H](CCCCN)C(=O)N[C@@H](CC(C)C)C(N)=O)C(C)C [GVVDIAKGAAKDIAGHLASKVMNKL]

- MIC [16]: 1.59 µM (≈ 4.07 µg/mL)
- MIC [23]: 1.98 µM (≈ 5.06 µg/mL)
- MIC [17]: 3.86 µM (≈ 9.87 µg/mL)
- MIC (Escherichia coli AS1.349): 6.25 µM (≈ 16 µg/mL)
- MIC [18]: 7 µM (≈ 17.9 µg/mL)
- MIC [19]: 1.81 µM (≈ 4.63 µg/mL)
- MIC (Bacillus cereus AS1.126): 3.91 µM (≈ 10 µg/mL)
- MIC [20]: ≥ 100 µM
- MIC [21]: 2.9 µM (≈ 7.42 µg/mL)
- MIC [24]: ≥ 100 µM
- MIC [22]: ≥ 100 µM
- MIC [25]: 7.81 µM (≈ 20 µg/mL)
Structure (SMILES): CC(C)[C@H](NC(=O)[C@H](CCCCN)NC(=O)[C@@H](N)CO)C(=O)N[C@@H](Cc1c[nH]c2ccccc12)C(=O)N[C@@H](CCCN=C(N)N)C(=O)N[C@@H](Cc1cnc[nH]1)C(=O)N[C@@H](Cc1c[nH]c2ccccc12)C(=O)N[C@@H](CCCN=C(N)N)C(=O)N[C@@H](CCCN=C(N)N)C(=O)N[C@@H](Cc1ccccc1)C(=O)N[C@@H](Cc1c[nH]c2ccccc12)C(=O)N[C@@H](Cc1cnc[nH]1)C(=O)N[C@@H](CCCN=C(N)N)C(=O)N[C@@H](C)C(=O)N[C@@H](Cc1cnc[nH]1)C(=O)N[C@@H](CCCN=C(N)N)C(=O)N[C@@H](CCCCN)C(=O)N[C@@H](CCCCN)C(=O)O [SKVWRHWRRFWHRAHRKK]

- MIC [26]: 19.5 µM (≈ 36.6 µg/mL)
- MIC [27]: ≥ 78.1 µM
Structure (SMILES): CC[C@H](C)[C@H](NC(=O)[C@@H](N)Cc1c[nH]c2ccccc12)C(=O)N[C@@H](CCC(N)=O)C(=O)N1CCC[C@H]1C(=O)N[C@@H](CCCCN)C(=O)N[C@H](C(=O)N[C@@H](CCCCN)C(=O)N[C@@H](C)C(=O)N[C@H](C(=O)N1CCC[C@H]1C(=O)N[C@@H](Cc1ccc(O)cc1)C(=O)N[C@H](C(=O)N[C@@H](CCCN=C(N)N)C(=O)N[C@@H](Cc1ccc(O)cc1)C(=O)N[C@@H](CC(C)C)C(=O)O)C(C)C)[C@@H](C)CC)[C@@H](C)O [WIQPKTKAIPYVRYL]
